Measured values from BindingDB's records for doi:10.1016/1074-5521(95)90264-3 (Smithkline Beecham Pharmaceuticals, 1995).

Target: Peptidyl-prolyl cis-trans isomerase FKBP1A (Homo sapiens, UniProt P62942)
Assay: FKBP12 Assay
Text: FKBP12 assay using rapamycin analogs.

Peptidyl-prolyl cis-trans isomerase FKBP1A, sequence (P62942 whole entry): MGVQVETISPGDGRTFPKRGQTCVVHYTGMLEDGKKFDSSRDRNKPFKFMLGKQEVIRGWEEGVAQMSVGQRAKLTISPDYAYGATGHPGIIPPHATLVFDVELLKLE

| EC50 [nM] | Ki [nM] | Structure (SMILES) |
| --- | --- | --- |
| 2500 | 3.7 | COC(=O)N[C@H]1C[C@@H]2CC[C@@H](C)[C@@](O)(O2)C(=O)C(=O)N2CCCC[C@H]2C(=O)O[C@H]([C@H](C)C[C@@H]2CC[C@@H](O)[C@H](OC)C2)CC(=O)[C@H](C)/C=C(\C)[C@@H](O)[C@@H](OC)C(=O)[C@H](C)C[C@H](C)/C=C/C=C/C=C/1C [Rapamycin C-7, analog 7b] |
| 300 | 29 | CO[C@@H]1C[C@H](C[C@@H](C)[C@@H]2CC(=O)[C@H](C)/C=C(\C)[C@@H](O)[C@@H](OC)C(=O)[C@H](C)C[C@H](C)C=CC=CC=C(C)C(=O)C[C@@H]3CC[C@@H](C)[C@@](O)(O3)C(=O)C(=O)N3CCCC[C@H]3C(=O)O2)CC[C@H]1O [Rapamycin C-7, analog 13] |
| > 1000 | 7 | COc1cc(OC)c([C@H]2C[C@@H]3CC[C@@H](C)[C@@](O)(O3)C(=O)C(=O)N3CCCC[C@H]3C(=O)O[C@H]([C@H](C)C[C@@H]3CC[C@@H](O)[C@H](OC)C3)CC(=O)[C@H](C)/C=C(\C)[C@@H](O)[C@@H](OC)C(=O)[C@H](C)C[C@H](C)/C=C/C=C/C=C/2C)c(OC)c1 [Rapamycin C-7, analog 9] |
| 90 | 30 | CO[C@@H]1C[C@H](C[C@@H](C)[C@@H]2CC(=O)[C@H](C)/C=C(\C)[C@@H](O)[C@@H](OC)C(=O)[C@H](C)C[C@H](C)/C=C/C=C/C=C(\C)[C@H](OCc3ccc(N=[N+]=[N-])c(I)c3)C[C@@H]3CC[C@@H](C)[C@@](O)(O3)C(=O)C(=O)N3CCCC[C@H]3C(=O)O2)CC[C@H]1O [Rapamycin C-7, analog 17a] |
| > 1000 | 38 | COc1ccc([C@H]2C[C@@H]3CC[C@@H](C)[C@@](O)(O3)C(=O)C(=O)N3CCCC[C@H]3C(=O)O[C@H]([C@H](C)C[C@@H]3CC[C@@H](O)[C@H](OC)C3)CC(=O)[C@H](C)/C=C(\C)[C@@H](O)[C@@H](OC)C(=O)[C@H](C)C[C@H](C)/C=C/C=C/C=C/2C)c(OC)c1 [Rapamycin C-7, analog 8b] |
| 70 | 1.5 | CO[C@@H]1C[C@H](C[C@@H](C)[C@@H]2CC(=O)[C@H](C)/C=C(\C)[C@@H](O)[C@@H](OC)C(=O)[C@H](C)C[C@H](C)/C=C/C=C/C=C(\C)[C@@H](c3ccc[nH]3)C[C@@H]3CC[C@@H](C)[C@@](O)(O3)C(=O)C(=O)N3CCCC[C@H]3C(=O)O2)CC[C@H]1O [Rapamycin C-7, analog 11b] |
| 4 | 1 | CO[C@@H]1C[C@H](C[C@@H](C)[C@@H]2CC(=O)[C@H](C)/C=C(\C)[C@@H](O)[C@@H](OC)C(=O)[C@H](C)C[C@H](C)/C=C/C=C/C=C(\C)[C@H](SC)C[C@@H]3CC[C@@H](C)[C@@](O)(O3)C(=O)C(=O)N3CCCC[C@H]3C(=O)O2)CC[C@H]1O [Rapamycin C-7, analog 6a] |
| > 10000 | 4.5 | COC(=O)N[C@@H]1C[C@@H]2CC[C@@H](C)[C@@](O)(O2)C(=O)C(=O)N2CCCC[C@H]2C(=O)O[C@H]([C@H](C)C[C@@H]2CC[C@@H](O)[C@H](OC)C2)CC(=O)[C@H](C)/C=C(\C)[C@@H](O)[C@@H](OC)C(=O)[C@H](C)C[C@H](C)/C=C/C=C/C=C/1C [Rapamycin C-7, analog 7a] |
| 11 | 10 | CO[C@@H]1C[C@H](C[C@@H](C)[C@@H]2CC(=O)[C@H](C)/C=C(\C)[C@@H](O)[C@@H](OC)C(=O)[C@H](C)C[C@H](C)/C=C/C=C/C=C(\C)[C@H](c3ccc[nH]3)C[C@@H]3CC[C@@H](C)[C@@](O)(O3)C(=O)C(=O)N3CCCC[C@H]3C(=O)O2)CC[C@H]1O [Rapamycin C-7, analog 11a] |
| 45 | 1 | CO[C@@H]1C[C@H](C[C@@H](C)[C@@H]2CC(=O)[C@H](C)/C=C(\C)[C@@H](O)[C@@H](OC)C(=O)[C@H](C)C[C@H](C)/C=C/C=C/C=C(\C)[C@H](OCc3ccc(Cl)cc3)C[C@@H]3CC[C@@H](C)[C@@](O)(O3)C(=O)C(=O)N3CCCC[C@H]3C(=O)O2)CC[C@H]1O [Rapamycin C-7, analog 16a] |
| 50 | 7 | CO[C@@H]1C[C@H](C[C@@H](C)[C@@H]2CC(=O)[C@H](C)/C=C(\C)[C@@H](O)[C@@H](OC)C(=O)[C@H](C)C[C@H](C)/C=C/C=C/C=C(\C)[C@H](OCc3cccc([N+](=O)[O-])c3)C[C@@H]3CC[C@@H](C)[C@@](O)(O3)C(=O)C(=O)N3CCCC[C@H]3C(=O)O2)CC[C@H]1O [Rapamycin C-7, analog 15a] |
| 6 | 5 | CO[C@@H]1C[C@H](C[C@@H](C)[C@@H]2CC(=O)[C@H](C)/C=C(\C)[C@@H](O)[C@@H](OC)C(=O)[C@H](C)C[C@H](C)/C=C/C=C/C=C(\C)[C@H](OCc3ccccc3)C[C@@H]3CC[C@@H](C)[C@@](O)(O3)C(=O)C(=O)N3CCCC[C@H]3C(=O)O2)CC[C@H]1O [Rapamycin C-7, analog 14a] |
| 1000 | 9 | COc1ccc([C@@H]2C[C@@H]3CC[C@@H](C)[C@@](O)(O3)C(=O)C(=O)N3CCCC[C@H]3C(=O)O[C@H]([C@H](C)C[C@@H]3CC[C@@H](O)[C@H](OC)C3)CC(=O)[C@H](C)/C=C(\C)[C@@H](O)[C@@H](OC)C(=O)[C@H](C)C[C@H](C)/C=C/C=C/C=C/2C)c(OC)c1 [Rapamycin C-7, analog 8a] |
| 4 | 1 | CO[C@@H]1C[C@H](C[C@@H](C)[C@@H]2CC(=O)[C@H](C)/C=C(\C)[C@@H](O)[C@@H](OC)C(=O)[C@H](C)C[C@H](C)/C=C/C=C/C=C(\C)[C@@H](SC)C[C@@H]3CC[C@@H](C)[C@@](O)(O3)C(=O)C(=O)N3CCCC[C@H]3C(=O)O2)CC[C@H]1O [Rapamycin C-7, analog 6b] |
| 2 | 1 | CO[C@@H]1C[C@H](C[C@@H](C)[C@@H]2CC(=O)[C@H](C)/C=C(\C)[C@@H](O)[C@@H](OC)C(=O)[C@H](C)C[C@H](C)/C=C/C=C/C=C(\C)CC[C@@H]3CC[C@@H](C)[C@@](O)(O3)C(=O)C(=O)N3CCCC[C@H]3C(=O)O2)CC[C@H]1O [Rapamycin C-7, analog 12] |
| 20 | 3 | CO[C@@H]1C[C@H](C[C@@H](C)[C@@H]2CC(=O)[C@H](C)/C=C(\C)[C@@H](O)[C@@H](OC)C(=O)[C@H](C)C[C@H](C)/C=C/C=C/C=C(\C)[C@H](c3ccco3)C[C@@H]3CC[C@@H](C)[C@@](O)(O3)C(=O)C(=O)N3CCCC[C@H]3C(=O)O2)CC[C@H]1O [Rapamycin C-7, analog 10a] |
| 20 | 6 | CO[C@@H]1C[C@H](C[C@@H](C)[C@@H]2CC(=O)[C@H](C)/C=C(\C)[C@@H](O)[C@@H](OC)C(=O)[C@H](C)C[C@H](C)/C=C/C=C/C=C(\C)[C@@H](c3ccco3)C[C@@H]3CC[C@@H](C)[C@@](O)(O3)C(=O)C(=O)N3CCCC[C@H]3C(=O)O2)CC[C@H]1O [Rapamycin C-7, analog 10b] |

| Structure (SMILES) | EC50 [nM] | Ki [nM] |
| --- | --- | --- |
| CCO[C@@H]1C[C@@H]2CC[C@@H](C)[C@@](O)(O2)C(=O)C(=O)N2CCCC[C@H]2C(=O)O[C@H]([C@H](C)C[C@@H]2CC[C@@H](O)[C@H](OC)C2)CC(=O)[C@H](C)/C=C(\C)[C@@H](O)[C@@H](OC)C(=O)[C@H](C)C[C@H](C)/C=C/C=C/C=C/1C [Rapamycin C-7, analog 5a] | 10 | 3.5 |
| CCO[C@H]1C[C@@H]2CC[C@@H](C)[C@@](O)(O2)C(=O)C(=O)N2CCCC[C@H]2C(=O)O[C@H]([C@H](C)C[C@@H]2CC[C@@H](O)[C@H](OC)C2)CC(=O)[C@H](C)/C=C(\C)[C@@H](O)[C@@H](OC)C(=O)[C@H](C)C[C@H](C)/C=C/C=C/C=C/1C [Rapamycin C-7, analog 5b] | 200 | 4 |
